Experiments:
[1] = Compound was evaluated for its binding affinity against muscarinic acetylcholine receptor M2 in guinea pig heart using (-)-[3H]-QNB as radioligand
[2] = Compound was evaluated for its binding affinity against Muscarinic acetylcholine receptor M1 in guinea pig cerebral cortex using (-)-[3H]-QNB as radioligand
[3] = Compound was evaluated for its binding affinity against muscarinic acetylcholine receptor M2 in guinea pig heart using (-)-[3H]-QNB as radioligand; remark: listed apart in the source
[4] = Compound was evaluated for its binding affinity against Muscarinic acetylcholine receptor M1 in guinea pig cerebral cortex using (-)-[3H]-QNB as radioligand; remark: listed apart in the source
[5] = Compound was evaluated for its binding affinity against muscarinic acetylcholine receptor M2 in guinea pig heart using (-)-[3H]-QNB as radioligand; remark: listed apart in the source

SMILES | Ki [1] | Ki [2] | Ki [3] | Ki [4] | Ki [5]
C[C@@H]1CCC2(CN3CCC2CC3)O1 (stereo partly specified) | > 25 µM | 20 µM |  |  | 
C[C@@H]1OCC2(CN3CCC2CC3)O1 (stereo partly drawn) [(2'S)-2'-methylspiro[4-azabicyclo[2.2.2]octane-2,4'-[1,3]dioxolane]] |  |  | > 21 µM | 6.3 µM | 
CC1(C)OCC2(CN3CCC2CC3)O1 (stereo unspecified) |  |  |  | 9.3 µM | 30 µM
C1OCC2(CN3CCC2CC3)O1 (stereo unspecified) |  |  |  | 19 µM | 50 µM
C[C@@H]1CC2(CO1)CN1CCC2CC1 (stereo partly specified) |  |  | > 20 µM | 6.3 µM | 
C[C@H]1CCC2(CN3CCC2CC3)O1 (stereo partly specified) |  |  | 15 µM | 15 µM | 
C[C@H]1CC2(CO1)CN1CCC2CC1 (stereo partly specified) | > 20 µM | 6.5 µM |  |  | 
C[C@H]1OCC2(CN3CCC2CC3)O1 (stereo partly drawn) [(2'S)-2'-methylspiro[4-azabicyclo[2.2.2]octane-2,4'-[1,3]dioxolane]] |  |  |  | 2.9 µM | 9.7 µM

— BindingDB's records for doi:10.1021/jm00087a007 (Uppsala University, 1992)
